According to patent publication US20250311722A1, “IMPROVED BIOCIDE” (Purgos ApS, priority 2022, published 2025):
“And” between values parts separate entries of the source, which are not always exact repeats. Equal entries are not always repeated. Where two headings read alike, the source gives them in different places.

What was measured:
[1] = test system: Candida albicans ISI 1226; assay: Minimum bactericidal concentration (MBC); assay type: cell-based; parameters: MBC data (outgrowth): unit not given here
Description: Even when no growth is detectable in the MIC tests, it is possible that the microorganisms have survived the treatment i.e., they are not killed but just prevented from growing. In order to test for survivors, MBC plates were subsequently made from the MIC plates.

[2] = test system: Coriolus versicolor. CTB 863 A; assay: EN 113 test against wood destroying basidiomycetes; assay type: cell-based; details: for Corrected mass loss, Mean / Mass loss, Mean: mean of blocks; for Corrected mass loss / Mass loss: single blocks
Description: EN 113, 2020: Durability of wood and wood-based products-Test method against wood destroying basidiomycetes. Assessment of biocidal efficacy of wood preservatives. […] The impregnation process was carried out on 24-03-2021 with the following conditions: Pre-vacuum at 0.1 bar for 30 minutes. Pressure of 13 bars for 60 minutes. Beech (Fagus sylvatica L.) for white rot fungi (Coriolus versicolor) with an average density 725 kg/m3. 4 weeks according to EN 113 at 65% RH and 20° C. until stable mass was obtained. Ionising radiation (2× 25 kGy).

rat = details: cited from earlier work
Poliovirus = assay type: cell-based
bacteria = assay: NBDA in different PVB dispersions at 32° C., ATP analysis (LuminUltra); assay type: cell-based; parameters: bacteria count 6 mo after adding NBDA / bacteria count 9 mo after adding NBDA / bacteria count 1 d after adding NBDA / bacteria count 1 wk after adding NBDA / bacteria count 1 mo after adding NBDA / bacteria count 3 mo after adding NBDA / bacteria count after 4 mo after addition of NBDA / bacteria count after 6 mo after addition of NBDA: unit not given here; details: 0.5% NBDA
Description: The amines selected from stock samples was made from factory prepared stock and sealed solutions delivered in technical quality (95-99.9%). […] Tertiary amine, water and PVB-dispersion was mechanically stirred in IKA vertical fixed blade stirrer for sampling in 2-5 minutes. Conditions was industrial clean, meaning no special precautions was taken to prevent contamination, except normal cleanliness and between operations dishwashing procedures. Working temperatures was 20-25 degre Celsius, and all incubations was made in thermostatic 32-degree Celsius incubator ovens for bottled flasks and open petri dishes. […] The protocol is provided by LuminUltra Technologies. Basically all tested dispersions are manufactured in same way, with only differences in additives, and the variations of origin/source of the waste material (See Example 1). However the specification of the SharkDispersions-all have same basic composition since the stability of the dispersion forces this. The in situ contamination of the production batches may also vary in handling and different storage methods in flasks, IBC's and tanks. In all production the dispersion before treated with tertiary amine is pasteurized due to the general level of production temperatures +90 degrees for several minutes. The biocidal effectivity of NBDA in different PVB dispersions was measured as explained above.

[3] = PVB dispersion FX2, 32° C., with 0.5% peroxide
[4] = PVB dispersion FX2, 32° C., without peroxide
[5] = PVB dispersion FX6, 32° C., with 0.5% peroxide
[6] = PVB dispersion FX6, 32° C., without peroxide
[7] = PVB dispersion SX, 32° C., with 0.5% peroxide

CCCCN(CCO)CCO [NBDA, N-butyldiethanolamine]
MBC (%) [1]: 1.25% | MBC data (outgrowth) ([1]; 0.02% NBDA): 1.332 and 1.357 | MBC data (outgrowth) ([1]; 0.04% NBDA): 1.291 and 1.314 | MBC data (outgrowth) ([1]; 0.08% NBDA): 1.278 and 1.314 | MBC data (outgrowth) ([1]; 0.16% NBDA): 1.171 and 1.485 | MBC data (outgrowth) ([1]; 0.31% NBDA): 1.168 and 1.175 | MBC data (outgrowth) ([1]; 1.25% NBDA): 0.079 and 0.080 | MBC data (outgrowth) ([1]; 2.50% NBDA): 0.074 and 0.075 | MBC data (outgrowth) ([1]; 5.00% NBDA): 0.068 | Toxic value, Retention of product ([2]; Beech): >15.40 kg/m^3 | Toxic value, Solution conc. ([2]; Beech): >2.20 % w/w | Corrected mass loss, Mean ([2]; solution conc. 0.55 % w/w): 26.8% | Mass loss, Mean ([2]; solution conc. 0.55 % w/w): 26.8% | Corrected mass loss ([2]; solution conc. 0.55 % w/w): 32.3% and 27.5% and 25.6% and 21.8% | Mass loss ([2]; solution conc. 0.55 % w/w): 32.3% and 27.5% and 25.6% and 21.8% | Corrected mass loss, Mean ([2]; solution conc. 0.78 % w/w): 31.8% | Mass loss, Mean ([2]; solution conc. 0.78 % w/w): 31.7% | Corrected mass loss ([2]; solution conc. 0.78 % w/w): 26.0% and 25.1% and 31.3% and 44.7% | Mass loss ([2]; solution conc. 0.78 % w/w): 25.9% and 25.0% and 31.2% and 44.6% | Corrected mass loss, Mean ([2]; solution conc. 1.09 % w/w): 31.2% | Mass loss, Mean ([2]; solution conc. 1.09 % w/w): 30.9% | Corrected mass loss ([2]; solution conc. 1.09 % w/w): 30.5% and 29.8% and 29.4% and 34.9% | Mass loss ([2]; solution conc. 1.09 % w/w): 30.2% and 29.5% and 29.2% and 34.6% | Corrected mass loss, Mean ([2]; solution conc. 1.55 % w/w): 28.3% | Mass loss, Mean ([2]; solution conc. 1.55 % w/w): 27.4% | Corrected mass loss ([2]; solution conc. 1.55 % w/w): 28.6% and 26.8% and 27.3% and 30.3% | Mass loss ([2]; solution conc. 1.55 % w/w): 27.8% and 25.9% and 26.4% and 29.5% | Corrected mass loss, Mean ([2]; solution conc. 2.20 % w/w): 25.7% | Mass loss, Mean ([2]; solution conc. 2.20 % w/w): 24.1% | LD50 (rat, oral) (rat): 4250 mg/kg | Mean log reduction after 60 seconds (Poliovirus; 1.0% NBDA): 0.26 | Mean log reduction after 60 seconds (Poliovirus; 5.0% NBDA): 0.17 | bacteria count 1 mo after adding NBDA (bacteria; [3]): 22 | bacteria count 1 wk after adding NBDA (bacteria; [3]): 9.9 | bacteria count 3 mo after adding NBDA (bacteria; [3]): 3 | bacteria count 1 d after adding NBDA (bacteria; [3]): 17.6 | bacteria count 1 mo after adding NBDA (bacteria; [4]): 77.1 | bacteria count 1 wk after adding NBDA (bacteria; [4]): 1.8 | bacteria count 3 mo after adding NBDA (bacteria; [4]): 64 | bacteria count 6 mo after adding NBDA (bacteria; [4]): 15.5 | bacteria count 1 d after adding NBDA (bacteria; [4]): 7.7 | bacteria count 1 mo after adding NBDA (bacteria; [5]): 0.93 | bacteria count 1 wk after adding NBDA (bacteria; [5]): 239 | bacteria count 3 mo after adding NBDA (bacteria; [5]): 28 | bacteria count 6 mo after adding NBDA (bacteria; [5]): 62 | bacteria count 9 mo after adding NBDA (bacteria; [5]): 15.4 | bacteria count 1 d after adding NBDA (bacteria; [5]): 31.7 | bacteria count 1 mo after adding NBDA (bacteria; [6]): 0.93 | bacteria count 1 wk after adding NBDA (bacteria; [6]): 25 | bacteria count 3 mo after adding NBDA (bacteria; [6]): 1.4 | bacteria count 6 mo after adding NBDA (bacteria; [6]): 1.1 | bacteria count 9 mo after adding NBDA (bacteria; [6]): 1.51 | bacteria count 1 d after adding NBDA (bacteria; [6]): 48.5 | bacteria count 1 mo after adding NBDA (bacteria; [7]): 24.2 | bacteria count 1 wk after adding NBDA (bacteria; [7]): 48.1 | bacteria count 3 mo after adding NBDA (bacteria; [7]): 54.6 | bacteria count 6 mo after adding NBDA (bacteria; [7]): 53 | bacteria count 9 mo after adding NBDA (bacteria; [7]): 21.9
